Assay results: ChEMBL document CHEMBL1201862, “PubChem BioAssay data set” (2004)
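Interpolation was linear, between the two tested concentrations surrounding the appropriate level; five concentrations were tested over 48 hours in 96-well plates. At the GI50, growth is halved.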 Activity calls are given as the source filed them. No stated cut-off is given here; in the data, active = GI50 up to about 1.1 µM and inactive = higher.

What was measured:
Test in all cases: inhibition of tumour cell growth, NCI panel, 48 h
HCT-15 = tested on: HCT-15
TK-10 = tested on: TK-10
ACHN = tested on: ACHN
786-0 = tested on: 786-0
NCI-H460 = tested on: NCI-H460
UACC-62 = tested on: UACC-62
HCC 2998 = tested on: HCC 2998
COLO 205 = tested on: COLO 205
K562 = tested on: K562
SK-MEL-2 = tested on: SK-MEL-2
A549 = tested on: A549
SNB-78 = tested on: SNB-78
EKVX = tested on: EKVX
SN12C = tested on: SN12C
CAKI-1 = tested on: CAKI-1
UACC-257 = tested on: UACC-257
UO-31 = tested on: UO-31
SNB-75 = tested on: SNB-75
T47D = tested on: T47D
MDA-MB-231 = tested on: MDA-MB-231

**Q.** What does the source list for `Cc1ccc(NC(=O)CC/C(CC(=O)c2ccc(F)cc2)=N\NC(=O)C(=O)NN)cc1C`?
**A.** GI50 (HCT-15): > 100 µM; GI50 (TK-10): > 100 µM (inactive); GI50 (ACHN): > 100 µM (inactive); GI50 (786-0): > 100 µM (inactive); GI50 (NCI-H460): > 100 µM (inactive); GI50 (UACC-62): > 100 µM (inactive); GI50 (HCC 2998): > 100 µM (inactive); GI50 (COLO 205): > 100 µM (inactive); GI50 (K562): > 100 µM (inactive); GI50 (SK-MEL-2): > 100 µM (inactive); GI50 (A549): > 100 µM (inactive); GI50 (SNB-78): > 100 µM (inactive); GI50 (EKVX): > 100 µM (inactive); GI50 (SN12C): > 100 µM (inactive); GI50 (CAKI-1): > 100 µM (inactive); GI50 (UACC-257): > 100 µM (inactive); GI50 (UO-31): > 100 µM (inactive); GI50 (SNB-75): > 100 µM (inactive)

**Q.** Which GI50 (HCT-15) does the source give for `COc1cc(NCC(C#N)C#N)ccc1/N=N/c1ccc(Cl)cc1` here?
**A.** 20 µM

**Q.** And the GI50 (TK-10)?
**A.** 29.8 µM (inactive)

**Q.** What about the GI50 (ACHN) of the same compound?
**A.** 31.8 µM (inactive)

**Q.** And the GI50 (786-0)?
**A.** 20 µM (inactive)

**Q.** And the GI50 (NCI-H460)?
**A.** 23.2 µM (inactive)

**Q.** And the GI50 (UACC-62)?
**A.** 10.6 µM (inactive)

**Q.** What about the GI50 (HCC 2998) of the same compound?
**A.** 19.7 µM (inactive)

**Q.** And the GI50 (COLO 205)?
**A.** 17.7 µM (inactive)

**Q.** What about the GI50 (K562) of the same compound?
**A.** 22.1 µM (inactive)

**Q.** And the GI50 (SK-MEL-2)?
**A.** 21.7 µM (inactive)

**Q.** What about the GI50 (A549) of the same compound?
**A.** 33.4 µM (inactive)

**Q.** And the GI50 (SNB-78)?
**A.** 36.7 µM (inactive)

**Q.** And the GI50 (EKVX)?
**A.** 21.1 µM (inactive)

**Q.** What about the GI50 (SN12C) of the same compound?
**A.** 38.8 µM (inactive)

**Q.** And the GI50 (UO-31)?
**A.** 16.9 µM (inactive)

**Q.** What about the GI50 (SNB-75) of the same compound?
**A.** 31.6 µM (inactive)

**Q.** For `O=C(O)C1OC(Oc2cc(O)c3c(=O)cc(-c4ccc(O)cc4)oc3c2)C(O)C(O)C1O` (stereo not given), which GI50 (TK-10) is on record?
**A.** > 100 µM (inactive)

**Q.** What about the GI50 (ACHN) of the same compound?
**A.** > 100 µM (inactive)

**Q.** What about the GI50 (786-0) of the same compound?
**A.** 77.3 µM (inactive)

**Q.** And the GI50 (NCI-H460)?
**A.** > 100 µM (inactive)

**Q.** What about the GI50 (HCC 2998) of the same compound?
**A.** > 100 µM (inactive)

**Q.** And the GI50 (COLO 205)?
**A.** > 100 µM (inactive)

**Q.** What about the GI50 (SK-MEL-2) of the same compound?
**A.** > 100 µM (inactive)

**Q.** And the GI50 (A549)?
**A.** > 100 µM (inactive)

**Q.** And the GI50 (SNB-78)?
**A.** > 100 µM (inactive)

**Q.** And the GI50 (EKVX)?
**A.** > 100 µM (inactive)

**Q.** What about the GI50 (SN12C) of the same compound?
**A.** > 100 µM (inactive)

**Q.** And the GI50 (CAKI-1)?
**A.** > 100 µM (inactive)

**Q.** What about the GI50 (UACC-257) of the same compound?
**A.** > 100 µM (inactive)

**Q.** What about the GI50 (UO-31) of the same compound?
**A.** > 100 µM (inactive)

**Q.** And the GI50 (SNB-75)?
**A.** > 100 µM (inactive)

**Q.** Which GI50 (HCT-15) does the source give for `COC(=O)C1CC(C(=O)OC)c2nc3cc(C)c(C)cc3nc21` (stereo not given) here?
**A.** > 100 µM

**Q.** And the GI50 (TK-10)?
**A.** > 100 µM (inactive)

**Q.** And the GI50 (ACHN)?
**A.** > 100 µM (inactive)

**Q.** And the GI50 (786-0)?
**A.** > 100 µM (inactive)

**Q.** What about the GI50 (NCI-H460) of the same compound?
**A.** > 100 µM (inactive)

**Q.** And the GI50 (UACC-62)?
**A.** > 100 µM (inactive)

**Q.** And the GI50 (HCC 2998)?
**A.** > 100 µM (inactive)

**Q.** And the GI50 (COLO 205)?
**A.** > 100 µM (inactive)

**Q.** And the GI50 (K562)?
**A.** > 100 µM (inactive)

**Q.** What about the GI50 (SK-MEL-2) of the same compound?
**A.** > 100 µM (inactive)

**Q.** And the GI50 (A549)?
**A.** > 100 µM (inactive)

**Q.** And the GI50 (SNB-78)?
**A.** > 100 µM (inactive)

**Q.** What about the GI50 (EKVX) of the same compound?
**A.** > 100 µM (inactive)

**Q.** What about the GI50 (SN12C) of the same compound?
**A.** > 100 µM (inactive)

**Q.** What about the GI50 (CAKI-1) of the same compound?
**A.** > 100 µM (inactive)

**Q.** And the GI50 (UACC-257)?
**A.** > 100 µM (inactive)

**Q.** What about the GI50 (UO-31) of the same compound?
**A.** > 100 µM (inactive)

**Q.** And the GI50 (SNB-75)?
**A.** 36.3 µM (inactive)

**Q.** Which results are given for `C[N+](C)(C)CC1CCCC/C1=N\O` (stereo not given)?
**A.** GI50 (HCT-15): > 100 µM; GI50 (TK-10): > 100 µM (inactive); GI50 (ACHN): > 100 µM (inactive); GI50 (786-0): > 100 µM (inactive); GI50 (NCI-H460): > 100 µM (inactive); GI50 (UACC-62): > 100 µM (inactive); GI50 (HCC 2998): > 100 µM (inactive); GI50 (COLO 205): > 100 µM (inactive); GI50 (K562): > 100 µM (inactive); GI50 (SK-MEL-2): > 100 µM (inactive); GI50 (A549): > 100 µM (inactive); GI50 (SNB-78): > 100 µM (inactive); GI50 (EKVX): > 100 µM (inactive); GI50 (SN12C): > 100 µM (inactive); GI50 (UACC-257): > 100 µM (inactive); GI50 (UO-31): > 100 µM (inactive)

**Q.** Which results are given for `CN(C)CCCNc1ccnc2cccc([N+](=O)[O-])c12`?
**A.** GI50 (HCT-15): 8.41 µM; GI50 (TK-10): 15.7 µM (inactive); GI50 (ACHN): 5 µM (inactive); GI50 (786-0): 14.1 µM (inactive); GI50 (NCI-H460): 6.5 µM (inactive); GI50 (HCC 2998): 13.3 µM (inactive); GI50 (T47D): 34.3 µM (inactive); GI50 (COLO 205): 3.73 µM (inactive); GI50 (K562): 29.4 µM (inactive); GI50 (MDA-MB-231): 17.7 µM (inactive); GI50 (SK-MEL-2): 17.2 µM (inactive); GI50 (A549): 12.8 µM (inactive); GI50 (SNB-78): 12.9 µM (inactive); GI50 (EKVX): 13.6 µM (inactive); GI50 (SN12C): 15.8 µM (inactive); GI50 (CAKI-1): 13.3 µM (inactive); GI50 (UACC-257): 19.1 µM (inactive); GI50 (UO-31): 13.3 µM (inactive); GI50 (SNB-75): 24.1 µM (inactive)

**Q.** With `CN(C)CC(/C(Cc1ccccc1)=N\NC(=S)NN)c1ccccc1` (stereo not given) as the compound, how does the GI50 (HCT-15) read?
**A.** > 100 µM

**Q.** What about the GI50 (TK-10) of the same compound?
**A.** > 100 µM (inactive)

**Q.** And the GI50 (ACHN)?
**A.** > 100 µM (inactive)

**Q.** And the GI50 (786-0)?
**A.** > 100 µM (inactive)

**Q.** What about the GI50 (NCI-H460) of the same compound?
**A.** > 100 µM (inactive)

**Q.** And the GI50 (UACC-62)?
**A.** > 100 µM (inactive)

**Q.** And the GI50 (HCC 2998)?
**A.** > 100 µM (inactive)

**Q.** And the GI50 (COLO 205)?
**A.** > 100 µM (inactive)

**Q.** And the GI50 (K562)?
**A.** > 100 µM (inactive)

**Q.** What about the GI50 (A549) of the same compound?
**A.** > 100 µM (inactive)

**Q.** What about the GI50 (SNB-78) of the same compound?
**A.** > 100 µM (inactive)

**Q.** And the GI50 (SN12C)?
**A.** > 100 µM (inactive)

**Q.** And the GI50 (CAKI-1)?
**A.** > 100 µM (inactive)

**Q.** And the GI50 (UACC-257)?
**A.** > 100 µM (inactive)

**Q.** What about the GI50 (UO-31) of the same compound?
**A.** > 100 µM (inactive)

**Q.** What about the GI50 (SNB-75) of the same compound?
**A.** > 100 µM (inactive)

**Q.** For `O=CC[C@H]1C(=O)C[C@@H]2CCC[C@@H]21`, which GI50 (HCT-15) is on record?
**A.** 45.7 µM

**Q.** And the GI50 (TK-10)?
**A.** > 100 µM (inactive)

**Q.** And the GI50 (ACHN)?
**A.** > 100 µM (inactive)

**Q.** What about the GI50 (786-0) of the same compound?
**A.** > 100 µM (inactive)

**Q.** What about the GI50 (NCI-H460) of the same compound?
**A.** > 100 µM (inactive)

**Q.** What about the GI50 (UACC-62) of the same compound?
**A.** 84.3 µM (inactive)

**Q.** And the GI50 (HCC 2998)?
**A.** > 100 µM (inactive)

**Q.** And the GI50 (COLO 205)?
**A.** > 100 µM (inactive)

**Q.** What about the GI50 (K562) of the same compound?
**A.** 34.2 µM (inactive)

**Q.** And the GI50 (SK-MEL-2)?
**A.** 59.2 µM (inactive)

**Q.** And the GI50 (A549)?
**A.** > 100 µM (inactive)

**Q.** What about the GI50 (SNB-78) of the same compound?
**A.** > 100 µM (inactive)

**Q.** And the GI50 (EKVX)?
**A.** > 100 µM (inactive)

**Q.** What about the GI50 (SN12C) of the same compound?
**A.** 92.3 µM (inactive)

**Q.** What about the GI50 (CAKI-1) of the same compound?
**A.** > 100 µM (inactive)

**Q.** What about the GI50 (UACC-257) of the same compound?
**A.** > 100 µM (inactive)

**Q.** What about the GI50 (SNB-75) of the same compound?
**A.** 64.4 µM (inactive)
